Entries after “also recorded” stand apart in the source; their conditions may differ.
Key:
Type in all cases: cell-based, human
[1] = tested on: CD138+ plasma cells from the RPMI 8226 and NCI-H929 MM cell lines; assay: Clonogenic growth of CD138+ plasma cells isolated from MM cell lines; details: FIGS. 10A and B, P<0.02 compared to the untreated control
[2] = tested on: CD138neg MM progenitors derived from primary clinical specimens; assay: Clonogenic recovery of CD138neg MM progenitors from primary clinical samples; details: 4 MM patients; FIG. 10C; P>0.2 compared to the untreated control
[3] = tested on: clonogenic MM cells; assay: In vitro clonogenic growth of MM precursors (summary statements); details: summary statement
Source text: Many agents are active in multiple myeloma (MM), but the majority of patients relapse. […] We further characterized clonogenic MM cells and stained cell lines using the Hoechst side population and Aldefluor assays. […] Furthermore, both the side population and Aldefluor assays were capable of identifying circulating clonotypic memory B cell populations within the peripheral blood of MM patients.
CD138^− precursors or CD138^+ plasma cells were isolated from the RPMI 8226 or NCI-H929 cell lines and treated with each of the two humanized monoclonal antibodies, rituximab or alemtuzumab, and in combination with human complement that strongly enhances their in vitro activity through complement dependent cytoxicity. Neither complement alone nor the monoclonal antibodies with or without complement affected the clonogenic growth of CD138^+ plasma cells that lack the target antigens (FIG. 8B; P>0.3 for all groups compared to the untreated control).
Although stem cells have been identified in an increasing number of human cancers, the clinical relevance and implications of these findings remain unclear. Standard response criteria used to measure the clinical efficacy of anti-cancer treatments primarily reflect changes in disease bulk and activity against mature tumor cells. Since cancer stem cells are a relatively low frequency population in most tumor types, the true inhibition of these cells is likely to be difficult to assess early following treatment, and a prolongation of disease remission would be required to establish such activity. The initial clinical responses induced by dexamethasone, lenalidomide, bortezomib and cyclophosphamide seen as decreased bone marrow plasmacytosis and monoclonal Ig levels in MM likely reflect the activity of these agents against mature MM plasma cells. […] It is well known that the anti-tumor activity of these agents is mediated in part by modulating the interaction between myeloma plasma cells and bone marrow stromal cells.
Our results complement a recent report describing the relative radioresistance of glioblastoma cancer stem cells compared to the differentiated cells that make up the bulk of the tumor mass. The stark biological differences between cancer stem cells and mature tumor cells is likely to be representative of many other malignancies as the clinical pattern of relapse following effective treatment can be seen in most human cancers. Therefore, therapeutic strategies that target the specific biology of cancer stem cells are likely required to prevent the continued production of mature tumor cells and produce sustained remissions. […] Therefore, optimal clinical strategies may require combining agents active against MM plasma cells to decrease tumor burden and alleviate symptoms with those that target MM cancer stem cells to prevent tumor regrowth and relapse.

Row | Molecule | clonogenic growth of CD138+ plasma cells [1] | effect on clonogenic MM precursors from patients [2] | effect of anti-myeloma agents on CD138neg precursors / clonogenic MM progenitors [3] | effect of antibodies on clonogenic MM cells [3] | effect of anti-myeloma agents on CD138neg precursors / clonogenic MM progenitors ([3]; listed as lenadilomide)
1 | CC(C)C[C@H](NC(=O)[C@H](Cc1ccccc1)NC(=O)c1cnccn1)B(O)O [bortezomib] | inhibited | not significantly affected | little effect; also recorded: similarly resistant |  | 
2 | Rituximab: humanized monoclonal antibody that targets the B-cell antigen CD20 |  |  |  | inhibit clonogenic MM cells | 
3 | alemtuzumab: humanized monoclonal antibody that targets the B-cell antigen CD52 |  |  |  | inhibit clonogenic MM cells | 
4 | Nc1cccc2c1CN(C1CCC(=O)NC1=O)C2=O (stereo not drawn) [lenalidomide] | inhibited | not significantly affected | similarly resistant |  | little effect

From US8748113B2, “Methods for detecting and monitoring circulating cancer stem cells” (The Johns Hopkins University, priority 2007, dated 2014)
